This is an account of results in article PMC6661771, “Indole hybridized diazenyl derivatives: synthesis, antimicrobial activity, cytotoxicity evaluation and docking studies” (BMC Chemistry, 2019).

Converted amounts (≈) assume the structure as drawn. Like-named read-outs stand apart in the source and are kept apart here.

Data set [1] concerns E. coli. As to the kind of experiment: MIC by tube dilution method. In kind it is cell-based. The settings on record: Escherichia coli, 24 h, 24 h at 37 °C, read-out: MIC.
Data set [2] concerns S. aureus. As to the kind of experiment: MIC by tube dilution method. In kind it is cell-based. The settings on record: Staphylococcus aureus, 24 h at 37 °C, read-out: MIC.
Data set [3] deals with S. enterica. As to the kind of experiment: MIC by tube dilution method. In kind it is cell-based. The conditions noted are these: Salmonella enterica, 24 h, 24 h at 37 °C, read-out: MIC.
Data set [4] has as its system B. subtilis. As to the kind of experiment: MIC by tube dilution method. In kind it is cell-based. The conditions noted are these: Bacillus subtilis, 24 h at 37 °C, read-out: MIC.
For data set [5], the system named is K. pneumonia. As to the kind of experiment: MIC by tube dilution method. The settings on record: Klebsiella pneumoniae, 24 h, 24 h at 37 °C, read-out: MIC. Type of data set: cell-based.
The test system of data set [6] is A. niger. As to the kind of experiment: MIC by tube dilution method. Type of data set: cell-based. The settings on record: Aspergillus niger, 168 h, 7 days at 25 °C, read-out: MIC.
Data set [7] deals with A. fumigatus. As to the kind of experiment: MIC by tube dilution method. In kind it is cell-based. The conditions noted are these: Aspergillus fumigatus, 168 h, 7 days at 25 °C, read-out: MIC.
The subject of data set [8] is E. coli. As to the kind of experiment: Minimum bactericidal concentration (MBC). Type of data set: cell-based. The settings on record: Escherichia coli.
The test system of data set [9] is S. aureus. As to the kind of experiment: Minimum bactericidal concentration (MBC). The settings on record: Staphylococcus aureus. Type of data set: cell-based.
Data set [10] has as its system S. enterica. As to the kind of experiment: Minimum bactericidal concentration (MBC). Type of data set: cell-based. The conditions noted are these: Salmonella enterica; S. enterica; MBC; read-out: MBC/MFC. The procedure:
After MIC assessment, the indole derivatives (DS1–DS21), were additionally evaluated for MBC and MFC values. […] The 10–15 ml of nutrient agar and Sabouraud dextrose agar was added to the petri plates for bacterial and fungal samples respectively with gentle shaking of plates in order to mix the culture throughout the media. Allowed the media to solidify. The petri plates were then incubated for the predefined time and temperature as referenced already for bacterial and fungal cultures respectively. The plates were then investigated visually for the development of microbial growth. The MBC and MFC were stated as the minimum concentration of the compounds in aliquots showing no visual growth after incubation.

The test system of data set [11] is B. subtilis. As to the kind of experiment: Minimum bactericidal concentration (MBC). In kind it is cell-based. The conditions noted are these: Bacillus subtilis.
The subject of data set [12] is K. pneumonia. As to the kind of experiment: Minimum bactericidal concentration (MBC). In kind it is cell-based. The settings on record: Klebsiella pneumoniae.
Data set [13] deals with A. niger. As to the kind of experiment: Minimum fungicidal concentration (MFC). In kind it is cell-based. The settings on record: Aspergillus niger, read-out: MBC/MFC.
Data set [14] relates to A. fumigatus. As to the kind of experiment: Minimum fungicidal concentration (MFC). The settings on record: Aspergillus fumigatus, read-out: MBC/MFC. In kind it is cell-based.
Another data set has as its system K562. As to the kind of experiment: MTT cell proliferation assay. Type of data set: cell-based. The settings on record: Homo sapiens, K562 leukemia, 48 h of drug treatment. The procedure:
(§1) The cell lines used in study were initially procured from the National Centre for Cell Sciences (NCCS), Pune, India, and maintained in DMEM. The cell line was cultured in 25 cm^2 tissue culture flask with DMEM supplemented with 10% FBS, sodium bicarbonate, L-glutamine, and antibiotic solution containing: streptomycin (100 μg/ml), penicillin (100 U/ml). Cultured cell line was kept at 37 °C in a humidified 5% CO2 incubator (VWR, USA).
(§2) The compounds found to have good antimicrobial potential were then screened for their cytotoxicity using MTT […]) assay. 1 × 10^4 cells/well were seeded in 100 µl DMEM/MEM, supplemented with 10% FBS in each well of 96-well microculture plates and incubated for 24 h at 37 °C in a CO2 incubator. After incubation, all the prepared/synthesized compounds were added to the cells at 10, 25, 50 and 100 µg concentrations for 48 h. After 48 h of drug treatment, 10 µl MTT (5 mg/ml) was added to each well and the plates were further incubated for 4 h. Then the supernatant from each well was carefully removed, formazan crystals were dissolved in 100 µl of DMSO and absorbance at 570 nm wavelength was recorded on an ELISA reader. The IC50 value was calculated using the linear regression equation i.e. Y = Mx + C. Here, Y = 50, M and C values were derived from the viability graph. The assay was performed in triplicate.
A general note: Tetrazolium assays rely on reduction of a dye to a coloured formazan, in cell work by metabolically active cells.

The next data set concerns MDA MB 231. As to the kind of experiment: MTT cell proliferation assay. In kind it is cell-based. The settings on record: MDA MB 231 breast cancer, 48 h of drug treatment. The procedure:
as §1, §2

The next data set has as its system HEK-293. As to the kind of experiment: MTT cell proliferation assay, normal cells. The conditions noted are these: Homo sapiens, HEK293, HEK-293 normal cells, 48 h of drug treatment. Type of data set: cell-based. The procedure: as §1, §2
For a further data set, the system named is HCT 116. As to the kind of experiment: MTT cell proliferation assay. Type of data set: cell-based. The conditions noted are these: Homo sapiens, HCT-116, 48 h, HCT 116 colon cancer, 48 h of drug treatment. The procedure: as §1, §2
[15] abbreviates: Homo sapiens, MDA-MB-231, 48 h, read-out: IC50.

`C/C(=N/c1ccc(F)cc1)c1ccc(/N=N\c2c[nH]c3ccc([N+](=O)[O-])cc23)cc1` [DS-16, (Z)-4-Fluoro-N-(1-(4-((Z)-(5-nitro-1H-indol-3-yl)diazenyl)phenyl)ethylidene)aniline]: the melting point (in general, the temperature, or range, at which the solid turns liquid) was 150 to 152 °C. In the data set on E. coli [1], the minimum inhibitory concentration (MIC) (usually the lowest concentration found to suppress growth) was 15.6 µg/mL (≈ 38.9 µM). Moreover, the MIC in the data set with S. aureus [2] stood at 62.5 µg/mL (≈ 156 µM). In the data set with S. enterica [3], the MIC was 62.5 µg/mL (≈ 156 µM). Besides, in the data set on B. subtilis [4], the MIC came out at 31.2 µg/mL (≈ 77.9 µM). In the data set with K. pneumonia [5], the MIC was found to be 7.81 µg/mL (≈ 19.5 µM). Also, the MIC in the data set on A. niger [6] was 62.5 µg/mL (≈ 156 µM). The minimum inhibitory concentration (MIC) in the data set with A. fumigatus [7] was found to be 31.2 µg/mL (≈ 77.9 µM). In the data set with E. coli [8], this compound showed an MBC of 62.5 µg/mL (≈ 156 µM). Besides, the MBC in the data set on S. aureus [9] came out at 125 µg/mL (≈ 311 µM). Besides, the MBC with S. enterica [10] came to 62.5 µg/mL (≈ 156 µM). This compound came in with an MBC against B. subtilis [11] of 125 µg/mL (≈ 311 µM). Moreover, the MBC in the data set with K. pneumonia [12] was 31.2 µg/mL (≈ 77.9 µM). In addition, in the data set on A. niger [13], the MFC stood at 125 µg/mL (≈ 311 µM). For the same compound, in the data set on A. fumigatus [14], the MFC came to 125 µg/mL (≈ 311 µM).

`C/C(=N/c1ncccn1)c1ccc(/N=N\c2c[nH]c3ccccc23)cc1` [DS-17, (Z)-N-(1-(4-((Z)-(1H-Indol-3-yl)diazenyl)phenyl)ethylidene)pyrimidin-2-amine] had a melting point of 275 to 280 °C. The minimum inhibitory concentration (MIC) in the data set on E. coli [1] turned out to be 3.9 µg/mL (≈ 11.5 µM). In addition, the MIC with S. aureus [2] was determined as 62.5 µg/mL (≈ 184 µM). The MIC in the data set on S. enterica [3] is 62.5 µg/mL (≈ 184 µM). Further, the MIC in the data set on B. subtilis [4] stood at 125 µg/mL (≈ 367 µM). In the data set on K. pneumonia [5], the MIC amounted to 7.81 µg/mL (≈ 22.9 µM). Moreover, the MIC in the data set on A. niger [6] worked out at 62.5 µg/mL (≈ 184 µM). In addition, the MIC in the data set on A. fumigatus [7] was 31.2 µg/mL (≈ 91.8 µM). The compound further yielded an MBC against E. coli [8] of 15.6 µg/mL (≈ 45.9 µM). The MBC with S. aureus [9] turned out to be 62.5 µg/mL (≈ 184 µM). In addition, in the data set with S. enterica [10], the MBC amounted to 62.5 µg/mL (≈ 184 µM). This compound also came in with an MBC in the data set with B. subtilis [11] of 62.5 µg/mL (≈ 184 µM). The compound also came in with an MBC in the data set on K. pneumonia [12] of 15.6 µg/mL (≈ 45.9 µM). The MFC in the data set with A. niger [13] stood at 125 µg/mL (≈ 367 µM). Also, the MFC in the data set with A. fumigatus [14] worked out at 125 µg/mL (≈ 367 µM).

`C/C(=N/CCNc1cccc2ccccc12)c1ccc(/N=N\c2c[nH]c3ccccc23)cc1` [DS-20, (Z)-N1-(1-(4-((Z)-(1H-Indol-3-yl)diazenyl)phenyl)ethylidene)-N2-(naphthalen-1-yl)ethane-1,2-diamine] had a melting point of 110 to 115 °C. Also, the minimum inhibitory concentration (MIC) in the data set on E. coli [1] was determined as 1.95 µg/mL (≈ 4.52 µM). Besides, in the data set on S. aureus [2], the minimal inhibitory concentration (MIC) came out at 125 µg/mL (≈ 290 µM). Also, the MIC in the data set on S. enterica [3] is 15.6 µg/mL (≈ 36.2 µM). For the same compound, the MIC with B. subtilis [4] came to 125 µg/mL (≈ 290 µM). Also, the MIC in the data set with K. pneumonia [5] turned out to be 3.9 µg/mL (≈ 9.04 µM). Also, the MIC in the data set on A. niger [6] was 62.5 µg/mL (≈ 145 µM). Moreover, in the data set with A. fumigatus [7], the MIC was 62.5 µg/mL (≈ 145 µM). This compound showed an MBC in the data set on S. aureus [9] of 62.5 µg/mL (≈ 145 µM). The MBC with S. enterica [10] is 31.2 µg/mL (≈ 72.4 µM). In addition, the MBC in the data set with B. subtilis [11] amounted to 125 µg/mL (≈ 290 µM). The compound also returned an MBC in the data set on K. pneumonia [12] of 15.6 µg/mL (≈ 36.2 µM). Also, the MFC in the data set on A. niger [13] is 125 µg/mL (≈ 290 µM). Also, in the data set with A. fumigatus [14], the MFC was 125 µg/mL (≈ 290 µM). Besides, it took 136 ± 4.74 µg/mL (≈ 315 µM) to reach half-maximal inhibition in the data set on K562 (IC50). For the same compound, in the data set on MDA MB 231 (setting [15]), the IC50 – broadly, the concentration needed to halve the response being measured – is 19 to 65 µg/mL (≈ 44 to 151 µM). The IC50 with MDA MB 231 was 20.95 ± 1.93 µg/mL (≈ 48.5 µM). Further, the IC50 in the data set with HEK-293 was determined as 233 ± 4.68 µg/mL (≈ 539 µM).

`C/C(=N/c1nc2ccccc2s1)c1ccc(/N=N\c2c[nH]c3ccc([N+](=O)[O-])cc23)cc1` [DS-21, (Z)-N-(1-(4-((Z)-(5-Nitro-1H-indol-3-yl)diazenyl)phenyl)ethylidene)benzo[d]thiazol-2-amine] came in with a melting point of 130 to 135 °C. Besides, the MIC with E. coli [1] was determined as 3.9 µg/mL (≈ 8.85 µM). Further, the MIC with S. aureus [2] is 62.5 µg/mL (≈ 142 µM). Further, in the data set on S. enterica [3], the MIC stood at 31.2 µg/mL (≈ 70.9 µM). Besides, in the data set with B. subtilis [4], the minimal inhibitory concentration (MIC) came to 31.2 µg/mL (≈ 70.9 µM). In addition, the MIC in the data set on K. pneumonia [5] was found to be 3.9 µg/mL (≈ 8.85 µM). In the data set on A. niger [6], the minimum inhibitory concentration (MIC) was determined as 125 µg/mL (≈ 284 µM). Moreover, the minimal inhibitory concentration (MIC) with A. fumigatus [7] was 125 µg/mL (≈ 284 µM). The MBC in the data set with S. aureus [9] was 62.5 µg/mL (≈ 142 µM). The MBC with S. enterica [10] stood at 31.2 µg/mL (≈ 70.9 µM). Further, in the data set on B. subtilis [11], the MBC was determined as 62.5 µg/mL (≈ 142 µM). Besides, in the data set on A. niger [13], the MFC stood at 125 µg/mL (≈ 284 µM). For the same compound, the MFC in the data set on A. fumigatus [14] worked out at 125 µg/mL (≈ 284 µM). In addition, in the data set on HCT 116, the IC50 stood at 125 ± 1.33 µg/mL (≈ 283 µM). For the same compound, half-maximal inhibition in the data set with K562 (IC50) required 158 ± 3.73 µg/mL (≈ 359 µM). Also, in the data set with MDA MB 231 (setting [15]), the 50% inhibitory concentration (IC50) came to 49.3 ± 4.15 µg/mL (≈ 112 µM). The same compound returned an IC50 in the data set on HEK-293 of 142 ± 3.25 µg/mL (≈ 322 µM).
